Earlier results on one compound are cited in US10548859B2, “Methods for storing Cysteamine formulations and related methods of treatment” (Horizon Orphan LLC, priority 2015, dated 2020).

The conditions of the data set: children with cystinosis.

Regarding `COc1ccc2c(c1)c(CC(=O)O)c(C)n2C(=O)c1ccc(Cl)cc1` [indomethacin], the “reduction of urine volume and liquid consumption” value was “about 30%”.
